The source of these data is the supplement of paper PMC10307832.

The first assay concerns NCI-H1650. Kind of assay: relative viability (nuclei count vs DMSO), 5 days (fraction); higher = more cells survive. To be noted: first compound 8 µM. The essentials: (§1)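 Relative viability equals treated-well nuclei counts divided by vehicle-well nuclei counts. Counts came from 4× images of lung cancer cell lines grown in 1536-well plates for 5 days after pin-tool dosing on the day after seeding. Dosing used one drug alone or a fixed anchor-drug dose plus five library-drug doses (not always all listed) in √10 steps, and values are medians of duplicate plates.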
As to `CCCCCCCCCCCC1=C(O)C(=O)C=C(O)C1=O` [Embelin] + COc1cc2c(Oc3ccc(NC(=O)C4(C(=O)Nc5ccc(F)cc5)CC4)cc3F)ccnc2cc1OCCCN1CCOCC1 [Foretinib] (partner 0.25 µM), the relative viability is 0.968.

With `CCCCCCCCCCCC1=C(O)C(=O)C=C(O)C1=O` [Embelin] + CS(=O)(=O)N1CCN(Cc2cc3nc(-c4cccc5[nH]ncc45)nc(N4CCOCC4)c3s2)CC1 [Pictilisib] (partner 1 µM), the relative viability stood at 0.504.

Consider `CCCCCCCCCCCC1=C(O)C(=O)C=C(O)C1=O` [Embelin] + C[C@@H](Oc1cc(-c2cnn(C3CCNCC3)c2)cnc1N)c1c(Cl)ccc(F)c1Cl [Crizotinib] (partner 1 µM), for which the relative viability worked out at 1.16.

In another assay the test system is UMC-11. Described as above. To be noted: first compound 0.08 µM. Summed up: as §1
In the case of `CCCCCCCCCCCC1=C(O)C(=O)C=C(O)C1=O` [Embelin] + O=C(CCCCCCC(=O)Nc1ccccc1)NO [Vorinostat] (partner 1 µM), the relative viability was determined as 0.39.

Compound `CCCCCCCCCCCC1=C(O)C(=O)C=C(O)C1=O` [Embelin] + Cc1cc(Nc2cc(N3CCN(C)CC3)nc(Sc3ccc(NC(=O)C4CC4)cc3)n2)n[nH]1 [Tozasertib] (partner 0.1 µM) showed a relative viability of 0.211.

`CCCCCCCCCCCC1=C(O)C(=O)C=C(O)C1=O` [Embelin] + COc1cc2c(Oc3ccc(NC(=O)C4(C(=O)Nc5ccc(F)cc5)CC4)cc3F)ccnc2cc1OCCCN1CCOCC1 [Foretinib] (partner 0.25 µM) had a relative viability of 1.06.

The compound `CCCCCCCCCCCC1=C(O)C(=O)C=C(O)C1=O` [Embelin] + CS(=O)(=O)N1CCN(Cc2cc3nc(-c4cccc5[nH]ncc45)nc(N4CCOCC4)c3s2)CC1 [Pictilisib] (partner 1 µM) gave a relative viability of 0.852.

In turn, `CCCCCCCCCCCC1=C(O)C(=O)C=C(O)C1=O` [Embelin] + C[C@@H](Oc1cc(-c2cnn(C3CCNCC3)c2)cnc1N)c1c(Cl)ccc(F)c1Cl [Crizotinib] (partner 1 µM) yielded a relative viability of 0.639.

Staying with this assay, now noted: first compound 0.8 µM.
Consider `CCCCCCCCCCCC1=C(O)C(=O)C=C(O)C1=O` [Embelin] + O=C(CCCCCCC(=O)Nc1ccccc1)NO [Vorinostat] (partner 1 µM), for which the relative viability is 0.407.

Compound `CCCCCCCCCCCC1=C(O)C(=O)C=C(O)C1=O` [Embelin] + Cc1cc(Nc2cc(N3CCN(C)CC3)nc(Sc3ccc(NC(=O)C4CC4)cc3)n2)n[nH]1 [Tozasertib] (partner 0.1 µM) displayed a relative viability of 0.199.

Take `CCCCCCCCCCCC1=C(O)C(=O)C=C(O)C1=O` [Embelin] + COc1cc2c(Oc3ccc(NC(=O)C4(C(=O)Nc5ccc(F)cc5)CC4)cc3F)ccnc2cc1OCCCN1CCOCC1 [Foretinib] (partner 0.25 µM): the relative viability turned out to be 1.14.

As to `CCCCCCCCCCCC1=C(O)C(=O)C=C(O)C1=O` [Embelin] + CS(=O)(=O)N1CCN(Cc2cc3nc(-c4cccc5[nH]ncc45)nc(N4CCOCC4)c3s2)CC1 [Pictilisib] (partner 1 µM), the relative viability turned out to be 1.

For the compound `CCCCCCCCCCCC1=C(O)C(=O)C=C(O)C1=O` [Embelin] + C[C@@H](Oc1cc(-c2cnn(C3CCNCC3)c2)cnc1N)c1c(Cl)ccc(F)c1Cl [Crizotinib] (partner 1 µM), the relative viability is 0.618.

The assay is the same for the next values; noted with them: first compound 2.53 µM.
With `CCCCCCCCCCCC1=C(O)C(=O)C=C(O)C1=O` [Embelin] + O=C(CCCCCCC(=O)Nc1ccccc1)NO [Vorinostat] (partner 1 µM), the relative viability turned out to be 0.372.

As for `CCCCCCCCCCCC1=C(O)C(=O)C=C(O)C1=O` [Embelin] + Cc1cc(Nc2cc(N3CCN(C)CC3)nc(Sc3ccc(NC(=O)C4CC4)cc3)n2)n[nH]1 [Tozasertib] (partner 0.1 µM), the relative viability amounted to 0.184.

The compound `CCCCCCCCCCCC1=C(O)C(=O)C=C(O)C1=O` [Embelin] + COc1cc2c(Oc3ccc(NC(=O)C4(C(=O)Nc5ccc(F)cc5)CC4)cc3F)ccnc2cc1OCCCN1CCOCC1 [Foretinib] (partner 0.25 µM) showed a relative viability of 1.21.

As to `CCCCCCCCCCCC1=C(O)C(=O)C=C(O)C1=O` [Embelin] + CS(=O)(=O)N1CCN(Cc2cc3nc(-c4cccc5[nH]ncc45)nc(N4CCOCC4)c3s2)CC1 [Pictilisib] (partner 1 µM), the relative viability was determined as 1.11.

Compound `CCCCCCCCCCCC1=C(O)C(=O)C=C(O)C1=O` [Embelin] + C[C@@H](Oc1cc(-c2cnn(C3CCNCC3)c2)cnc1N)c1c(Cl)ccc(F)c1Cl [Crizotinib] (partner 1 µM) gave a relative viability of 0.644.

Staying with this assay, now noted: first compound 8 µM.
As to `CCCCCCCCCCCC1=C(O)C(=O)C=C(O)C1=O` [Embelin] + O=C(CCCCCCC(=O)Nc1ccccc1)NO [Vorinostat] (partner 1 µM), the relative viability turned out to be 0.393.

`CCCCCCCCCCCC1=C(O)C(=O)C=C(O)C1=O` [Embelin] + Cc1cc(Nc2cc(N3CCN(C)CC3)nc(Sc3ccc(NC(=O)C4CC4)cc3)n2)n[nH]1 [Tozasertib] (partner 0.1 µM) showed a relative viability of 0.192.

`CCCCCCCCCCCC1=C(O)C(=O)C=C(O)C1=O` [Embelin] + COc1cc2c(Oc3ccc(NC(=O)C4(C(=O)Nc5ccc(F)cc5)CC4)cc3F)ccnc2cc1OCCCN1CCOCC1 [Foretinib] (partner 0.25 µM) registered a relative viability of 1.28.

Take `CCCCCCCCCCCC1=C(O)C(=O)C=C(O)C1=O` [Embelin] + CS(=O)(=O)N1CCN(Cc2cc3nc(-c4cccc5[nH]ncc45)nc(N4CCOCC4)c3s2)CC1 [Pictilisib] (partner 1 µM): the relative viability came to 0.667.

Regarding `CCCCCCCCCCCC1=C(O)C(=O)C=C(O)C1=O` [Embelin] + C[C@@H](Oc1cc(-c2cnn(C3CCNCC3)c2)cnc1N)c1c(Cl)ccc(F)c1Cl [Crizotinib] (partner 1 µM), the relative viability came out at 0.572.

The subject of another assay is CAL-12T. The assay is described as above. To be noted: first compound 0.08 µM. Summed up:
as §1
`CCCCCCCCCCCC1=C(O)C(=O)C=C(O)C1=O` [Embelin] + O=C(CCCCCCC(=O)Nc1ccccc1)NO [Vorinostat] (partner 1 µM) displayed a relative viability of 0.848.

The compound `CCCCCCCCCCCC1=C(O)C(=O)C=C(O)C1=O` [Embelin] + Cc1cc(Nc2cc(N3CCN(C)CC3)nc(Sc3ccc(NC(=O)C4CC4)cc3)n2)n[nH]1 [Tozasertib] (partner 0.1 µM) returned a relative viability of 0.315.

Regarding `CCCCCCCCCCCC1=C(O)C(=O)C=C(O)C1=O` [Embelin] + COc1cc2c(Oc3ccc(NC(=O)C4(C(=O)Nc5ccc(F)cc5)CC4)cc3F)ccnc2cc1OCCCN1CCOCC1 [Foretinib] (partner 0.25 µM), the relative viability is 1.1.

The compound `CCCCCCCCCCCC1=C(O)C(=O)C=C(O)C1=O` [Embelin] + CS(=O)(=O)N1CCN(Cc2cc3nc(-c4cccc5[nH]ncc45)nc(N4CCOCC4)c3s2)CC1 [Pictilisib] (partner 1 µM) yielded a relative viability of 0.49.

With `CCCCCCCCCCCC1=C(O)C(=O)C=C(O)C1=O` [Embelin] + C[C@@H](Oc1cc(-c2cnn(C3CCNCC3)c2)cnc1N)c1c(Cl)ccc(F)c1Cl [Crizotinib] (partner 1 µM), the relative viability came to 0.615.

Still in this assay, the particulars now being: first compound 0.8 µM.
The compound `CCCCCCCCCCCC1=C(O)C(=O)C=C(O)C1=O` [Embelin] + O=C(CCCCCCC(=O)Nc1ccccc1)NO [Vorinostat] (partner 1 µM) returned a relative viability of 0.779.

The compound `CCCCCCCCCCCC1=C(O)C(=O)C=C(O)C1=O` [Embelin] + Cc1cc(Nc2cc(N3CCN(C)CC3)nc(Sc3ccc(NC(=O)C4CC4)cc3)n2)n[nH]1 [Tozasertib] (partner 0.1 µM) had a relative viability of 0.406.
